Measurements taken from US9598370B2, “Prolyl hydroxylase inhibitors and methods of use” (Akebia Therapeutics, Inc., priority 2006, dated 2017).

What was measured:
[1] = system: EPO; experiment: Mouse serum EPO assay (mouse ischemic hindlimb study); assay type: in vivo
Experimental: (§1) Mouse Ischemic Hindlimb Study
(§2) All animal work is conducted in accordance with the Guide for the Care and Use of Laboratory Animals (National Academy of Sciences; Copyright© 1996) and the Institutional Animal Care and Use Committee guidelines at Procter and Gamble Pharmaceuticals. We studied 9-10 week old male C57Bl/6 mice from Charles River Laboratory (Portage, Mich.). The mice are orally dosed with vehicle (aqueous carbonate buffer, 50 mM; pH 9.0) or compound 1 in vehicle at 50 mg/kg or 100 mg/kg. The animals are dosed three times: day 1 at 8 am and 5 pm, day 2 at 8 am. One hour after the first dose, unilateral arterial ligation is performed under anesthesia using isoflurane. The femoral artery is ligated proximal to the origin of the popliteal artery. The contralateral limb underwent a sham surgical procedure. Ligation is performed in an alternating fashion between right and left hindlimbs. Two hours after 8 am dosing on day 2, we obtained blood by ventricular stick while the mice are anesthetized with isoflurane. Serum samples for EPO analysis are obtained using gel clot serum separation tubes. Heart, liver, and gastrocnemius muscles are harvested, snap-frozen in liquid nitrogen, and stored in −80° C. until use.
The mouse serum EPO is detected using Mouse Quantikine Erythropoietin ELISA kit from R&D Systems according to manufacturer's instructions.

[2] = system: HIF-1α; experiment: Mouse tissue HIF Western blot analysis; assay type: in vivo
Experimental: as §1, §2
Mouse Tissue HIF Western Blot Analysis
Tissues from mice stored at −80° C. are powdered with mortar and pestle chilled with liquid nitrogen. […]

[3] = molecular target: Full-length recombinant human EGLN-3 (His-MBP-TVMVEGLN-3 fusion) (Homo sapiens (Human), UniProt Q9H6Z9); experiment: EGLN-3 enzyme activity assay (MALDI-TOF MS); assay type: biochemical; details: recombinant human EGLN-3 fusion; HIF-1α peptide 556-574 substrate; read-out: EGLIN3 IC50
Experimental: Hydroxylated peptide product is identified from substrate by the gain of 16 Da. Data defined as percent conversion of substrate to product is analyzed in GraphPad Prism 4 to calculate IC50 values.

Full-length recombinant human EGLN-3 (His-MBP-TVMVEGLN-3 fusion), sequence (Q9H6Z9 whole entry, the tested form may be a part): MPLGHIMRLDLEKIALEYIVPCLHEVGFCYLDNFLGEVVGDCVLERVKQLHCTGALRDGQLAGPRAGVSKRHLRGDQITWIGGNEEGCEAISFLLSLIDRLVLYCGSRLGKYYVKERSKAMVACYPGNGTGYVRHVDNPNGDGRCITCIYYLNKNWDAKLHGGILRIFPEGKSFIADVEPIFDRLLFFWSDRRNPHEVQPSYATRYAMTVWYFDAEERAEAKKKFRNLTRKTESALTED

Row | IC50 [3] [nM] | Structure (SMILES) | erythropoietin level versus vehicle in mouse serum (FIG. 2) ([1]; mouse serum after oral dosing) | stabilization of HIF-1α in mouse liver (immunoblot of nuclear extracts, FIG. 1) [2] | EPO response ([1]; in vivo response, mouse serum EPO)
1 | – | O=C(O)CNC(=O)c1ncc(-c2cccc(Cl)c2)cc1O [{[5-(3-Chlorophenyl)-3-hydroxypyridine-2-carbonyl]amino}-acetic acid] | elevated | stabilization of HIF-1α | –
2 | 83 | O=C(O)CNC(=O)c1ncc(-c2ccc(Cl)cc2)cc1O [{[5-(4-Chlorophenyl)-3-hydroxypyridine-2-carbonyl]amino}-acetic acid] | – | – | yes
